In the NIST ThermoML archive (doi:10.1021/acs.jced.5b01023):

Experiment: refractive index (Na D-line) (dimensionless); xn = mol fraction of the nth substance listed
Details: 101 kPa, Liquid, Standard Abbe refractometry

CC(=O)[O-].CCn1cc[n+](C)c1 [1-ethyl-3-methylimidazolium acetate] + CC(C)O
refractive index
Details	x1 = 0.1	x1 = 0.2	x1 = 0.3	x1 = 0.4	x1 = 0.5001	x1 = 0.5998	x1 = 0.7	x1 = 0.7994	x1 = 0.9	x1 = 1
288.15 K	1.40475	–	1.43991	1.45344	1.4651	1.47535	1.48406	1.4912	1.49776	1.50285
298.15 K	1.40107	–	1.43669	1.45075	1.46242	1.47243	1.48131	1.48861	1.49526	1.50069
308.15 K	1.39762	1.42276	1.4336	1.4475	–	1.46954	1.4784	1.48593	1.49257	1.49803
318.15 K	1.39423	1.41947	1.43066	1.44471	1.45641	1.46689	1.47561	1.48324	1.48986	1.49527
328.15 K	1.39112	1.41637	1.42763	1.44229	1.45352	1.46489	1.47293	1.48046	1.48714	1.49266
338.15 K	1.38677	1.41309	1.42464	1.43908	1.45107	1.45943	1.47054	1.47775	1.48466	1.48995

CC(=O)[O-].CCn1cc[n+](C)c1 [1-ethyl-3-methylimidazolium acetate] + CCCO
refractive index
Details	x1 = 0.1017	x1 = 0.2004	x1 = 0.3001	x1 = 0.3998	x1 = 0.4997	x1 = 0.5996	x1 = 0.6998	x1 = 0.8002	x1 = 0.8991	x1 = 1
288.15 K	1.41146	1.42938	1.44451	1.45711	1.46775	1.47687	1.485	1.49189	1.49712	1.50285
298.15 K	1.40825	1.42622	1.44134	1.45401	1.46473	1.47411	1.48219	1.48919	1.49506	1.50069
308.15 K	1.40453	1.42291	1.43827	1.45119	1.46189	1.47127	1.47942	1.48632	1.49221	1.49803
318.15 K	1.40109	1.41973	1.43523	1.44803	1.45888	1.4683	1.47661	1.48365	1.48899	1.49527
328.15 K	1.39753	1.41631	1.43208	1.44542	1.45593	1.4657	1.47372	1.48089	1.48673	1.49266
338.15 K	1.39391	1.41301	1.4291	1.44211	1.45308	1.46267	1.4711	1.47818	1.48324	1.48995
348.15 K	1.39115	1.41033	1.42601	1.43912	1.45026	1.45993	1.46823	1.47546	1.4803	1.48721
